{"source": "patent US9695129B2", "about": "“Parasiticidal compositions comprising benzimidazole derivatives, methods and uses thereof” (MERIAL INC., priority 2012, dated 2017)", "parameters_in_all_cases": "species or system Fasciola hepatica", "key": {"[1]": {"tested_on": "F. hepatica resistant to triclabendazole (Oberon isolate of Australia)", "assay": "In vitro test against triclabendazole-resistant F. hepatica (Oberon isolate), movement score", "details": "for Fluke activity score: scale 3 (very active) to 0 (death)"}, "adult F. hepatica [2]": {"tested_on": "adult F. hepatica", "assay": "In vitro test on adult F. hepatica (viability scale, effective concentration)", "details": "Fasciola hepatica, read-out: Effective in vitro concentration", "procedure": "Representative compounds of formula (I), formula (II), and formula (III) were tested in vitro against F. hepatica as follows. Adult F. hepatica (fluke) were collected from infected bovine livers obtained from a local abattoir (Basel, Switzerland). The worms were quickly washed with 0.9% (w/v) NaCl and placed in 6 or 12-well plates (Costar). Culture medium in each well contained RPMI 1640 (Gibco) at 37° C., which was supplemented with antibiotics (50 μg/ml streptomycin and 50 IU/ml penicillin; Gibco) and 80 μg/ml of a haemin solution. The haemin solution was prepared as follows: 5 mg haemin was dissolved in 1 ml of 0.1M aqueous solution of NaOH, and 3.95 ml of PBS (pH=7.4) and 0.05 ml of 1M HCl were added to adjust the pH to 7.1-7.4 (Keiser and Morson, 2008). Cultures were kept at 37° C. in an atmosphere of 5% CO2. To monitor the temporal effects of test compounds in vitro, 3 flukes were incubated for 72 h in the presence of 50 or 100 μg/ml of each test compound. At 24, 48, and 72 h, worms were examined using a dissecting microscope. For the adult worms, a viability scale ranging from 4 (normal movements) to 1 (death; no movement observed for two min using a microscope) was used.\n(§1) Table 1 lists representative compounds of formula (I) of the present invention and their effective in vitro concentrations against F. hepatica. All compounds were tested in vitro on the adult stage of F. hepatica as described above. Each data point refers to at least two independent experiments. For Table 1, R2 is H, R4 is Cl and R5 is H.\nas §1, with “2” for “1”, “(II)” for “(I)”, “2 compounds, the 2-position of the benzimidazole ring” for “1, R2”, “methylthio, R6” for “H, R4”, “H” for “Cl”, “R9” for “R5”\nas §1, with “3” for “1”, “(III)” for “(I)”, “3, the 2-position of the benzimidazole ring” for “1, R2”, “trifluoromethylthio, R10” for “H, R4”, “H” for “Cl”, “R13” for “R5”"}, "adult F. hepatica [3]": {"tested_on": "adult F. hepatica", "assay": "In vivo test in female Wistar rats harboring adult F. hepatica", "details": "single oral dose 100 mg/kg, one week after dosing; for Number of living worms Ø = average: control 6.3; for Worm burden reduction %: vs untreated control", "procedure": "Additionally, five compounds were tested in vivo in female Wistar rats against an untreated control. Rats were kept in groups of five in type-4 Makrolon cages under environmentally controlled conditions (temperature, 22° C.; humidity, 70%; light/dark cycle, 12/12 h) with free access to water and rodent food. F. hepatica metacercariae (Pacific Northwest wild strain) were purchased from Baldwin Aquatics (Monmouth, Oreg.). After one week of adaptation, each rat was infected by oral gavage with approximately 25 metacercariae.\nThree rats harboring adult F. hepatica (>8 weeks postinfection) were used to test each of five compounds. The rats were given a single oral dose of 100 mg/kg with each of test compounds 273, 274, 282, 290 and 303. Untreated rats (n=3) served as controls. Dosing formulations consisted of 300 ul Tween 80:ethanol (1:1) and 2.7 ml water. One week after dosing the animals were euthanized and live worms recovered from excised bile ducts."}, "[4]": {"details": "Table 1, formula (I), adult flukes incubated up to 72 h, at least two independent experiments"}}, "note": "Read-outs that look alike come from different tables or passages of the source.", "data": [{"compound": "FC(F)(F)c1nc2cc(Cl)c(-c3ccc(Cl)cc3)cc2[nH]1", "note": "[Compound 130, 6-chloro-5-(4-chlorophenyl)-2-trifluoromethylbenzimidazole]", "values": [{"measurement": "Fluke activity score", "setting": "[1]; 20 μg/ml, 0 h", "result": 3}, {"measurement": "Fluke activity score", "setting": "[1]; 20 μg/ml, 24 h", "result": 0.25}, {"measurement": "Fluke activity score", "setting": "[1]; 20 μg/ml, 48 h", "result": 0}, {"measurement": "Fluke activity score", "setting": "[1]; 20 μg/ml, 72 h", "result": 0}, {"measurement": "minimal effective concentration", "setting": "adult F. hepatica [2]; 72 h", "result": 2.5, "unit": "µg/mL"}]}, {"compound": "FC(F)(F)C(F)(F)C(F)(F)c1nc2cc(Cl)c(Oc3ccc(Cl)cc3Cl)cc2[nH]1", "note": "[Compound 273, 5-chloro-6-(2,4-dichlorophenoxy)-2-(heptafluoropropyl)-1H-1,3-benzodiazole]", "values": [{"measurement": "Fluke activity score", "setting": "[1]; 10 μg/ml, 0 h", "result": 3}, {"measurement": "Fluke activity score", "setting": "[1]; 10 μg/ml, 24 h", "result": 0}, {"measurement": "Fluke activity score", "setting": "[1]; 10 μg/ml, 48 h", "result": 0}, {"measurement": "Fluke activity score", "setting": "[1]; 10 μg/ml, 72 h", "result": 0}, {"measurement": "Fluke activity score", "setting": "[1]; 20 μg/ml, 0 h", "result": 3}, {"measurement": "Fluke activity score", "setting": "[1]; 20 μg/ml, 24 h", "result": 0}, {"measurement": "Fluke activity score", "setting": "[1]; 20 μg/ml, 48 h", "result": 0}, {"measurement": "Fluke activity score", "setting": "[1]; 20 μg/ml, 72 h", "result": 0}, {"measurement": "Efficacy against triclabendazole-resistant flukes, in words", "setting": "[1]; even at 10 μg/ml, compared with #114, #130, #140 and 50 μg/ml triclabendazole/sulfoxide", "result": "particularly efficacious"}, {"measurement": "minimal effective concentration", "setting": "adult F. hepatica [2]; 72 h", "result": 5, "unit": "µg/mL"}, {"measurement": "No. of rats cured/No. of rats investigated", "setting": "adult F. hepatica [3]", "result": "1/2"}, {"measurement": "Number of living worms Ø = average", "setting": "adult F. hepatica [3]", "result": 1.5}, {"measurement": "Worm burden reduction %", "setting": "adult F. hepatica [3]", "result": 76.2, "unit": "%"}]}, {"compound": "Fc1ccc(-c2cc3[nH]c(C(F)(F)C(F)(F)C(F)(F)F)nc3cc2Cl)cc1", "note": "[Compound 282, 5-chloro-6-(4-fluorophenyl)-2-(heptafluoropropyl)-1H-1,3-benzodiazole]", "values": [{"measurement": "minimal effective concentration", "setting": "adult F. hepatica [2]; 72 h", "result": "< 2.5", "unit": "µg/mL"}, {"measurement": "No. of rats cured/No. of rats investigated", "setting": "adult F. hepatica [3]", "result": "2/3"}, {"measurement": "Number of living worms Ø = average", "setting": "adult F. hepatica [3]", "result": 2}]}, {"compound": "FC(F)(F)c1ccc(-c2cc3[nH]c(C(F)(F)C(F)(F)C(F)(F)F)nc3cc2Cl)cc1", "note": "[Compound 290, 5-chloro-2-(heptafluoropropyl)-6-[4-(trifluoromethyl)phenyl]-1H-1,3-benzodiazole]", "values": [{"measurement": "minimal effective concentration", "setting": "adult F. hepatica [2]; [4]", "result": 50, "unit": "µg/mL"}, {"measurement": "No. of rats cured/No. of rats investigated", "setting": "adult F. hepatica [3]", "result": "1/3"}, {"measurement": "Number of living worms Ø = average", "setting": "adult F. hepatica [3]", "result": 3.3}, {"measurement": "Worm burden reduction %", "setting": "adult F. hepatica [3]", "result": 47.6, "unit": "%"}]}, {"compound": "C[S+]([O-])c1nc2cc(Oc3cccc(Cl)c3Cl)c(Cl)cc2[nH]1", "note": "(centres unmarked) [TBZ-SOX, triclabendazole/sulfoxide, reference compound]", "values": [{"measurement": "Fluke activity score", "setting": "[1]; 50 μg/ml, 0 h", "result": 3}, {"measurement": "Fluke activity score", "setting": "[1]; 50 μg/ml, 24 h", "result": 3}, {"measurement": "Fluke activity score", "setting": "[1]; 50 μg/ml, 48 h", "result": 2.5}, {"measurement": "Fluke activity score", "setting": "[1]; 50 μg/ml, 72 h", "result": 2}]}, {"compound": "FC(F)(F)C(F)(F)C(F)(F)c1nc2cc(Cl)c(Oc3cccc(Cl)c3Cl)cc2[nH]1", "note": "[Compound 140, 6-chloro-5-(2,3-dichlorophenoxy)-2-heptafluoropropylbenzimidazole]", "values": [{"measurement": "Fluke activity score", "setting": "[1]; 20 μg/ml, 0 h", "result": 3}, {"measurement": "Fluke activity score", "setting": "[1]; 20 μg/ml, 24 h", "result": 0.5}, {"measurement": "Fluke activity score", "setting": "[1]; 20 μg/ml, 48 h", "result": 0}, {"measurement": "Fluke activity score", "setting": "[1]; 20 μg/ml, 72 h", "result": 0}, {"measurement": "minimal effective concentration", "setting": "adult F. hepatica [2]; 72 h", "result": 5, "unit": "µg/mL"}]}, {"compound": "FC(F)(F)C(F)(F)C(F)(F)c1nc2cc(Cl)c(-c3ccc(Cl)cc3)cc2[nH]1", "note": "[Compound 274, 5-chloro-6-(4-chlorophenyl)-2-(heptafluoropropyl)-1H-1,3-benzodiazole]", "values": [{"measurement": "minimal effective concentration", "setting": "adult F. hepatica [2]; 72 h", "result": 5, "unit": "µg/mL"}, {"measurement": "No. of rats cured/No. of rats investigated", "setting": "adult F. hepatica [3]", "result": "1/3"}, {"measurement": "Number of living worms Ø = average", "setting": "adult F. hepatica [3]", "result": 2.3}]}, {"compound": "FC(F)(F)c1ccc(-c2cc3[nH]c(C(F)(F)C(F)(F)C(F)(F)F)nc3cc2Cl)c(C(F)(F)F)c1", "note": "[Compound 303, 6-[2,4-bis(trifluoromethyl)phenyl]-5-chloro-2-(heptafluoropropyl)-1H-1,3-benzodiazole]", "values": [{"measurement": "minimal effective concentration", "setting": "adult F. hepatica [2]; [4]", "result": 20, "unit": "µg/mL"}, {"measurement": "No. of rats cured/No. of rats investigated", "setting": "adult F. hepatica [3]", "result": "1/3"}, {"measurement": "Number of living worms Ø = average", "setting": "adult F. hepatica [3]", "result": 1.3}, {"measurement": "Worm burden reduction %", "setting": "adult F. hepatica [3]", "result": 79.4, "unit": "%"}]}]}
